{"source": "patent US20070254861A1", "about": "“Methods for the prevention and/or treatment of peripheral arterial disease” (Astellas Pharma Inc., priority 2006, published 2007)", "key": {"[1]": {"system": "dermal blood flow in rat hindlimbs", "test": "Decreased dermal blood flow after lauric acid injection (laser Doppler)", "type": "in vivo", "protocol": "Three male SD rats (Japan CLEA) were used in each group of this experiment. A laser Doppler blood flow meter (Laser Doppler Perfusion Imager System, Lisca) was used to evaluate the perfusion in the left (ischemic) and right (non-ischemic) rat hindlimbs. Before and during scanning, animals were placed on a heating plate set at 37° C. to minimize variations in temperature. The femoral artery was cannulated with a polyethylene catheter for i.a. injection of the lauric acid and test drug. For i.v. PGE1 infusion, the jugular vein was cannulated with a polyethylene catheter. Either compound (I) (10 μg/kg) or vehicle was administered in an i.a. bolus injection 15 minutes after the lauric acid injection (0.33 ml/kg, 7.5 mg/ml in distilled water). The laser Doppler images were recorded just before and 10 minutes after the lauric acid injection, as well as 10 minutes after the compound (I) (or vehicle) injection. PGE1 was administered by i.v. infusion at a rate of 1 μg/kg/minutes for 30 minutes beginning 5 minutes before the lauric acid injection. The laser Doppler images were recorded just before and 5 minutes after the start of infusion (just before the lauric acid injection), and then again 10 minutes after the lauric acid injection. Either vehicle (0.5% methylcellulose solution) or clopidogrel (30 mg/kg) was orally administered 4 hours before the experiment. For the oral studies, the laser Doppler images were recorded just before and 10 minutes after the lauric acid injection."}, "[2]": {"system": "lauric acid-induced peripheral arterial disease model", "test": "Lesion progression in rat peripheral arterial disease model induced by lauric acid", "type": "in vivo", "protocol": "A rat peripheral arterial disease model was produced by using a lauric acid injection method modified from that of Ashida et al. (Thrombosis research, 18, 55, 1980). Six to 24 animals were used in each group of this experiment. After being fasted overnight, each rat was anesthetized with pentobarbital (60 mg/kg i.p.), and the left femoral artery was freed from the surrounding tissue. The femoral artery was cannulated with a polyethylene catheter for i.a. injection of the lauric acid and the test drug. For the i.v. infusion of PGE1, the jugular vein was cannulated with a polyethylene catheter. To induce peripheral arterial vascular injury, 0.33 ml/kg of lauric acid (7.5 mg/ml in distilled water) was injected into the distal side of the arterial. Compound (I) was administered in a single i.a. bolus injection 15 minutes after the lauric acid injection. PGE1 was administered either intravenously for 30 minutes at 1 μg/kg/minutes starting 5 minutes before the lauric acid injection or intra-arterially for 15 minutes at 0.2 μg/kg/minutes starting 5 minutes after the lauric acid injection. Clopidogrel was administered orally either at 3 and 30 mg/kg 4 hours before the lauric acid injection, or at 30 mg/kg 2 hours after the lauric acid injection. It was also administered orally once a day for 3 days after the lauric acid injection. The treated hindlimb was examined macroscopically on days 3 after the lauric acid injection. The progress of the lesion was assessed using the following 5-point graded scoring system: grade 0: normal appearance, grade 1: the affected region was limited to the nails, grade 2: the affected region was limited to the fingers, grade 3: either the fingers are beginning to fall off or lesions appear on the paw, grade 4: either the paw is beginning to fall off or lesions appear on the leg. The condition of each toe was assessed and scored, and the sum of the scores for the five toes was used as the lesion index. If a lesion developed on the sole of the foot, 5 more points were added."}, "[3]": {"test": "Pharmacokinetic studies using rats, i.v. bolus injection", "type": "in vivo", "conditions": "rat, iv, plasma, after i.v. bolus injection"}, "[4]": {"system": "ADP-induced platelet aggregation", "conditions": "JP-2003-210190; Journal of Antibiotics, 56, 358, 2003; cited from earlier work"}, "[5]": {"system": "isolated rat aorta", "test": "Vasorelaxant effect on vasoconstriction in isolated rat aorta", "type": "cell-based", "conditions": "for IC50: Rattus norvegicus", "protocol": "Four male SD rats (Japan CLEA) were used in each group of this experiment. Rats were anesthetized with pentobarbital (60 mg/kg i.p.) and euthanized via exsanguination. The aortas were isolated and all adjacent tissue was removed. Rings of aorta, approximately […] length, were suspended in 10-ml organ baths containing Krebs-Henseleit solution (henceforth referred to as Krebs) of the following composition (mM): NaCl, 112.0; KCl, 4.7; KH2PO4, 1.2; MgSO4, 1.2; CaCl2, 2.5; NaHCO3, 25.0; glucose, 11.0. The Krebs was maintained at 37±1° C. and aerated with a gas mixture of 95% O2:5% CO2 (pH 7.4). Experiments were conducted on aortic tissue of two types. For type 1, the endothelium was removed by gently rubbing the internal surface of the vessel. For type 2, care was taken to maintain the integrity of the endothelium. One ring was placed on a hook that was suspended from a force displacement transducer (SB-1T, Nihon Kohden, Tokyo, Japan), 1.0 g tension was applied, and changes in the force of contraction were isometrically measured. Following a 1-h equilibration period, the rings were pretreated with 1 μM phenylephrine. Compound (I) was dissolved in dimethyl sulfoxide (DMSO) and added to the baths (0.1% DMSO, v/v), after which a cumulative compound (I) (1-100 nM) concentration-response curve was constructed for each type of ring. Contractions were caused in aorta rings with endothelium using three different compounds: 10 μM serotonin (5-HT), 30 nM endothelin-1 (ET-1), and 60 mM KCl. The vasorelaxant effect of compound (I) on the contractions caused by each of these compounds was then compared. Various concentrations of compound (I) were added 30 minutes before treatment with each vasoconstrictor. For 5-HT and KCl, the concentration-inhibition rate was measured for each tissue. For ET-1, each tissue was used to measure the inhibition rate in response to a given concentration of compound (I)."}, "[6]": {"system": "ADP-induced platelet aggregation", "test": "Ex vivo platelet aggregation inhibition after single administration in the rat femoral artery", "conditions": "5 minutes after injection, n=4, mean±SEM", "protocol": "Four male SD rats (Japan CLEA) were used in each group of this experiment. All animals were fasted overnight before the experiment. After being anesthetized with pentobarbital (60 mg/kg i.p.), vehicle (5% ethanol) or compound (I) was injected into either the left femoral artery or the right jugular vein via a catheter. The rats were anesthetized with pentobarbital (60 mg/kg i.p.) before blood sampling. Blood was collected from the vena cava in syringes containing 3.8% sodium citrate at the following time points: 5 minutes after an intra-arterial (i.a.) single bolus injection of compound (I) (1-10 μg/kg). Platelet-rich plasma was obtained by centrifuging the blood at 200×g for 5 minutes at ambient temperature. This residue was further centrifuged at 2,000×g for 10 minutes in order to obtain platelet-poor plasma. Platelet counts were measured with an automatic cell counter (MEK-6258, Nihon Kohden, Tokyo, Japan), and adjusted to 3×10^5/μl with platelet-poor plasma. Platelet aggregation in platelet-rich plasma was measured using an aggregometer (MCM Hema Tracer 212, MC Medical, Tokyo, Japan) to record the increase in light transmission detected through a stirred suspension maintained at 37° C. for 5 minutes. Platelet aggregation was induced in 90 μl of platelet-rich plasma (3×10^5/μl) by adding 10 μl of 50 μM ADP. The inhibitory rate was calculated by dividing the absorbance area for the mixture containing the test sample by the absorbance area obtained for the vehicle-treated group."}, "[7]": {"system": "Gq/11", "conditions": "Journal of Biological Chemistry, 279, 47438, 2004; cited from earlier work"}, "[8]": {"system": "systemic blood pressure and heart rate", "test": "Blood pressure and heart rate after single bolus injection in femoral artery of rats", "type": "in vivo, rat", "protocol": "Five male SD rats (Japan CLEA) were used in each group of this experiment. The rats, which were fasted overnight, were anesthetized with urethane (1.4 g/kg i.p.) and then secured on an operating table. The left carotid artery was cannulated with polyethylene catheters in order to monitor systemic blood pressure and heart rate. The left femoral artery was likewise cannulated with polyethylene catheters for the injection of compound (I). Systemic blood pressure was measured with a pressure transducer (AP-200T, Nihon Kohden) and heart rate was measured with a tachometer (AT-600G, Nihon Kohden) that was triggered by the arterial pulse wave. Changes in these parameters were continuously monitored by a thermal recorder (WT-685G, Nihon Kohden). Compound (I) was administered in an i.a. bolus injection at the rate of 5 mL/kg. The dosage (10 to 100 μg/kg) was increased every 10 to 20 minutes. The inhibitory rate was calculated by dividing the heart rate and mean blood pressure levels obtained after the compound (I) injection by them obtained after the vehicle injection."}}, "note": "Read-outs that look alike come from different tables or passages of the source. Numbered stars: 1 amine (or outer) side, 2 acyl side, 3 side chain; on linkers, the order of the positions; unused ones are H or OH. Bridge positions count the residues as written; N and C are the ends. Square brackets hold non-standard residues; d marks the D form. Peptide text beside a SMILES is read from it. Leu(3R-O(AcLeu(3R-OH))) = CC(=O)N[C@H](C(=O)O[C@H](C(C)C)[C@H](N)C(=O)O)[C@H](O)C(C)C; X1 = CO[C@H](C)C(C(=O)[*:2])N(C)[*:1]; dPhLac = O=C(O)[C@H](O)Cc1ccccc1; NMeA = CN[C@@H](C)C(=O)O; NMeDha = C=C(NC)C(=O)O", "data": [{"molecule": "CCCCC[C@H](O)/C=C/[C@H]1[C@H](O)CC(=O)[C@@H]1CCCCCCC(=O)O", "note": "[PGE1, prostaglandin E1]", "values": [{"measurement": "Effect on lauric acid-induced reduction in dermal blood flow", "setting": "[1]; continuous i.v. infusion 1 μg/kg/minutes, after lauric acid injection", "value": "no improvement in the blood flow"}, {"measurement": "Dermal blood flow in both hindlimbs before lauric acid", "setting": "[1]; i.v. infusion 1 μg/kg/minutes, 5 minutes after the start of the infusion", "value": "marked increase in dermal blood flow"}, {"measurement": "Inhibition of lesion progression", "setting": "[2]; i.a. infusion at 0.2 μg/kg/minutes for 15 minutes starting 5 minutes after lauric acid", "value": "significantly inhibited lesion progression"}, {"measurement": "Inhibition of lesion progression", "setting": "[2]; i.v. infusion at 1 μg/kg/minutes for 30 minutes starting 5 minutes before lauric acid", "value": "significantly inhibited lesion progression"}]}, {"molecule": "C=C1C(=O)N[C@@H](C)C(=O)N(C)[C@@H](C)C(=O)N[C@@H]([C@H](OC(=O)[C@@H](NC(C)=O)[C@H](O)C(C)C)C(C)C)C(=O)N(C)C([C@@H](C)OC)C(=O)O[C@H](C)[C@H](NC(C)=O)C(=O)O[C@H](Cc2ccccc2)C(=O)N1C", "note": "(stereo partly drawn) [compound (I)] (Ac-T[dPhLac][NMeDha]A[NMeA][Leu(3R-O(AcLeu(3R-OH)))][X1]; ester 1-C)", "values": [{"measurement": "half-life", "setting": "[3]", "value": 3.7, "unit": "min"}, {"measurement": "Inhibition of ADP-induced platelet aggregation in human", "setting": "[4]", "value": "inhibits ADP-induced platelet aggregation in human"}, {"measurement": "Effect on KCl-induced contractions", "setting": "[5]; 60 mM KCl, even at a concentration of 1 μM", "value": "ineffective"}, {"measurement": "IC50", "setting": "[5]; contraction induced by 30 nM ET-1, aorta with endothelium, n=4, mean, read-out: IC50 of inhibition of vascular contraction", "value": 18, "unit": "nM"}, {"measurement": "IC50", "setting": "[5]; contraction induced by 10 μM 5-HT, aorta with endothelium, n=4, mean±SEM, read-out: IC50 of inhibition of vascular contraction", "value": "8.6 ± 1", "unit": "nM"}, {"measurement": "IC50", "setting": "[5]; span over the three vasoconstrictors, read-out: IC50 values for vasoconstrictions induced by phenylephrine, 5-HT and ET-1", "value": "8.6 to 18", "unit": "nM"}, {"measurement": "IC50", "setting": "[5]; with endothelium, pre-contracted with 1 μM phenylephrine, n=4, mean±SEM, read-out: IC50 of relaxation of isolated rat aorta", "value": "16 ± 2.3", "unit": "nM"}, {"measurement": "IC50", "setting": "[5]; without endothelium, pre-contracted with 1 μM phenylephrine, n=4, mean±SEM, read-out: IC50 of relaxation of isolated rat aorta", "value": 11, "unit": "nM"}, {"measurement": "Inhibitory rate of ADP-induced platelet aggregation", "setting": "[6]; 1 μg/kg i.a. bolus", "value": "−5.6±5.4", "unit": "%"}, {"measurement": "Inhibitory rate of ADP-induced platelet aggregation", "setting": "[6]; 3 μg/kg i.a. bolus", "value": "38±5.1", "unit": "%"}, {"measurement": "Inhibitory rate of ADP-induced platelet aggregation", "setting": "[6]; 10 μg/kg i.a. bolus", "value": "71±7.0", "unit": "%"}, {"measurement": "Gq/11 inhibition", "setting": "[7]", "value": "specific Gq/11 inhibitor"}, {"measurement": "Effect on lauric acid-induced reduction in dermal blood flow", "setting": "[1]; 10 μg/kg i.a. bolus 15 minutes after the lauric acid injection", "value": "improved the lauric acid-induced reduction in dermal blood flow somewhat, but did not correct it completely"}, {"measurement": "Relative mean blood pressure reduction", "setting": "[8]; 30 μg/kg i.a. bolus", "value": "25±5.2", "unit": "%"}, {"measurement": "Relative mean blood pressure reduction", "setting": "[8]; 100 μg/kg i.a. bolus", "value": "50±2.1", "unit": "%"}, {"measurement": "Hypotensive dose relative to dose with significant preventive effect (Example 4)", "setting": "[8]; i.a. administration", "value": 10, "unit": "times"}, {"measurement": "Significant hypotensive dose", "setting": "[8]; i.a. bolus, Example 6", "value": 0.03, "unit": "mg/kg"}, {"measurement": "Change of the heart rate", "setting": "[8]; up to 100 μg/kg i.a.", "value": "no significant change"}, {"measurement": "Dose inhibiting lesion progression with significance", "setting": "[2]; single i.a. bolus 15 minutes after the lauric acid injection, day 3", "value": "≥ 0.003", "unit": "mg/kg"}]}, {"molecule": "COC(=O)[C@H](c1ccccc1Cl)N1CCc2sccc2C1", "note": "[clopidogrel, (+)-(S)-methyl 2-(2-chlorophenyl)-2-(6,7-dihydrothieno[3,2-c]pyridin-5(4H)-yl)acetate]", "values": [{"measurement": "Effect on lauric acid-induced reduction in dermal blood flow", "setting": "[1]; 30 mg/kg oral 4 hours before the experiment", "value": "improved the blood flow only slightly"}, {"measurement": "Inhibition of lesion progression", "setting": "[2]; oral, administered 4 hours before the lauric acid injection", "value": "efficacy of clopidogrel was detected"}, {"measurement": "Inhibition of lesion progression", "setting": "[2]; oral, administered after the lauric acid injection", "value": "no effect was observed"}]}]}
